According to article PMC7932537, “Quantitative profiling of protease specificity” (PLoS Computational Biology, 2021):

System: MMP-2
Experiment: Substrate phage display with NGS: relative probability (RP) of P3-P1' tetramer clusters
Type: biochemical, human
Conditions: for avg_RP: MMP2 - no binning; for relative_probability: tetramer clusters unique to the MMP-2 selectome, MMP-2 RP
[1] = tetramer annotation of MMP-2 cleavage sites in all substrates from MEROPS
[2] = average relative probability (RP) of the P3-P1' tetramer, redundant tetramers have been averaged out
[3] = average relative probability of the P3-P1' tetramer, redundant tetramers have been averaged out
[4] = average relative probability of the tetramer, redundant tetramers averaged out
[5] = tetramer annotation of MMP-2 cleavage sites in physiologic substrates from MEROPS

AAEL
relative probability (RP) [1]: 15.51

AAGL
relative probability (RP) [1]: 29.36

ADLI
avg_RP [2]: 0.5875

AENL
avg_RP [2]: 6.7504

AFHI
avg_RP [2]: 0.4414

AFHL
avg_RP [2]: 8.795

AFNL
avg_RP [3]: 16.2959

AFSL
avg_RP [2]: 10.3321

AFTM
avg_RP [2]: 0

AGAL
avg_RP [3]: 19.769

AGHL
avg_RP [2]: 15.0568

AGRL
avg_RP [2]: 3.4801

AGSL
relative probability (RP) (acc.to MMP2) (MMP2, RP of matching P3-P1' tetramer, common set of MMP2-9 selectome, RP above KL threshold): 14.97 | relative probability (RP) of matching tetramer (P3-P1' tetramer matching the MS detected MMP2 cleavage sequence, RP_above_4.5): 14.97

AHAL
avg_RP [2]: 27.1646

AHGI
avg_RP [4]: 8.8809

AHGL
avg_RP [4]: 23.6336

AHHL
avg_RP [2]: 16.717

AHLL
avg_RP [3]: 1.4368

AHPL
avg_RP [2]: 24.4555

AHQL
avg_RP [3]: 4.1004

AHSL
avg_RP [3]: 21.0212

AIHL
avg_RP [4]: 13.4941

AIPL
avg_RP [4]: 24.8904

AISM
avg_RP [3]: 11.4166

AKHL
avg_RP [2]: 9.4662

AKML
avg_RP [2]: 2.8249

AKPL
avg_RP [2]: 20.8275

ALAL
avg_RP [3]: 22.1184

ALAM
avg_RP [2]: 20.8553

ALDL
avg_RP [2]: 2.4602

ALDM
avg_RP [2]: 0.2655

ALGI
avg_RP [4]: 18.2164

ALGL
avg_RP [2]: 26.3282

ALHL
avg_RP [3]: 14.6488

ALNF
avg_RP [4]: 9.2594

ALNL
avg_RP [3]: 17.2813

ALNM
avg_RP [2]: 13.7479

ALPL
avg_RP [4]: 22.1772

ALPM
avg_RP [2]: 15.3537

ALWL
avg_RP [2]: 7.2418

AMGL
avg_RP [4]: 23.7576

AMNI
avg_RP [3]: 4.1669

AMNL
avg_RP [3]: 16.2852

AMRM
avg_RP [3]: 0.1716

ANAL
avg_RP [4]: 20.3526

ANMI
avg_RP [2]: 1.6014

ANNL
avg_RP [4]: 18.8719

ANSI
avg_RP [2]: 0.424

ANSL
avg_RP [4]: 10.0738

ANYI
avg_RP [2]: 1.6587

ANYL
avg_RP [3]: 3.9008

AQAL
avg_RP [3]: 22.7358

AQDL
avg_RP [3]: 0.5121

AQEL
avg_RP [2]: 0.1876

AQHI
avg_RP [2]: 7.3783

AQHL
avg_RP [2]: 16.6778

AQMI
avg_RP [2]: 2.3525

AQML
avg_RP [3]: 8.608

AQNL
avg_RP [3]: 19.4627

AQPL
avg_RP [3]: 14.4283

AQSL
avg_RP [3]: 18.365

AQYL
avg_RP [3]: 7.443

ARAM
avg_RP [4]: 25.2992

ARAW
avg_RP [3]: 17.4628

ARFL
avg_RP [3]: 8.5771

ARGL
avg_RP [4]: 25.9476

ARKL
avg_RP [4]: 0

ARLL
avg_RP [4]: 1.104

ARML
avg_RP [3]: 2.9901

ARNL
avg_RP [4]: 24.6947

ARPL
avg_RP [4]: 27.8706

ARQL
avg_RP [3]: 3.2139

ARSL
avg_RP [3]: 17.186

ARSM
avg_RP [3]: 12.2991

ARWL
avg_RP [3]: 19.0362

ASAL
avg_RP [3]: 28.9092

ASFL
avg_RP [3]: 10.8605

ASGL
avg_RP [3]: 25.6721

ASHL
avg_RP [4]: 19.8208

ASHM
avg_RP [3]: 12.3873

ASNL
avg_RP [3]: 28.7368

ASRL
avg_RP [2]: 6.8948

ATAL
avg_RP [4]: 22.9481

AVAI
avg_RP [4]: 20.993

AVAL
avg_RP [3]: 27.4369

AWAL
avg_RP [2]: 14.3616

AWGL
avg_RP [3]: 17.7408

AWHL
avg_RP [2]: 5.5662

AWMM
avg_RP [2]: 1.3213

AWNL
avg_RP [4]: 14.0049

AWNM
avg_RP [2]: 2.0017

AWSL
avg_RP [4]: 7.006

AWYL
avg_RP [3]: 0.0964

AYHL
avg_RP [4]: 15.3364

AYHM
avg_RP [3]: 3.7603

AYNF
avg_RP [4]: 6.7246

AYNL
avg_RP [3]: 20.8713

AYNM
avg_RP [3]: 10.8408

AYSL
avg_RP [4]: 18.7071

FAAL
avg_RP [3]: 18.8584

FAHL
avg_RP [4]: 19.6504

FAPG
relative probability (RP) [5]: 0.08

FATL
avg_RP [2]: 9.1497

FEHL
avg_RP [3]: 1.2103

FGAL
avg_RP [4]: 25.0961

FGNL
avg_RP [3]: 26.0275

FLHL
avg_RP [3]: 0.8093

FLHM
avg_RP [3]: 0.2069

FLHW
avg_RP [3]: 0.0579

FQSL
avg_RP [3]: 13.5551

FQWL
avg_RP [2]: 13.3419

FRGL
avg_RP [3]: 7.4752

FRHL
avg_RP [4]: 3.942

FRML
avg_RP [3]: 0.2112

FRNL
avg_RP [3]: 9.8211

FRSM
avg_RP [3]: 5.3885

FSEL
avg_RP [3]: 12.1057

FSHL
avg_RP [4]: 16.5216

FSHM
avg_RP [3]: 11.0227

FSNL
avg_RP [3]: 24

FSQL
avg_RP [3]: 9.0646

FSRI
relative probability (RP) [5]: 0.35

FWHL
avg_RP [3]: 0

GAAL
avg_RP [3]: 15.7207

GAHL
avg_RP [4]: 8.4636

GAKL
avg_RP [2]: 0.1271

GANL
avg_RP [3]: 13.1428

GASL
avg_RP [3]: 9.5377

GAWL
avg_RP [2]: 11.7256

GDRL
avg_RP [2]: 0

GFAL
avg_RP [2]: 0.4341

GFQL
avg_RP [3]: 0.0467

GFSL
avg_RP [3]: 0.0975

GHNL
avg_RP [2]: 0.2721

GHRL
avg_RP [2]: 0.0505

GLAL
avg_RP [3]: 0.6848

GLEL
avg_RP [3]: 0

GLHL
avg_RP [2]: 0.1267

GLNL
avg_RP [3]: 0.5789

GLYL
avg_RP [4]: 0.0762

GMAL
avg_RP [2]: 1.3132

GMNM
avg_RP [3]: 0

GMRL
avg_RP [3]: 0

GNFL
avg_RP [2]: 0.2435

GNRL
avg_RP [3]: 0.0463

GNSL
avg_RP [3]: 0.2884

GQGL
avg_RP [2]: 0.1555

GQHL
avg_RP [3]: 1.1642

GRAL
avg_RP [4]: 7.9443

GRAM
avg_RP [4]: 2.5449

GRHL
avg_RP [4]: 3.5979

GRNL
avg_RP [4]: 8.8117

GRPL
avg_RP [2]: 5.2852

GSGL
avg_RP [4]: 1.9698

GSHL
avg_RP [4]: 4.2785

GWAL
avg_RP [3]: 0.0916

GWDL
avg_RP [2]: 0

GWRL
avg_RP [2]: 0.1031

GYAL
avg_RP [4]: 0.5867

GYHL
avg_RP [4]: 0.0815

GYSL
avg_RP [3]: 0.0471

HAHL
avg_RP [4]: 20.0775

HANL [P3-P1' tetramer cluster]
relative_probability: 30.86

HAWM
avg_RP [4]: 17.1047

HFHL
avg_RP [4]: 0.0941

HLAL
avg_RP [4]: 11.3603

HLNI
avg_RP [2]: 0.0853

HMAL
avg_RP [2]: 5.2214

HMHM
avg_RP [2]: 0

HMRL
avg_RP [3]: 0.0574

HQNL
avg_RP [3]: 17.7487

HQSL
avg_RP [2]: 10.5998

HQWL
avg_RP [2]: 19.2059

HRSI
avg_RP [2]: 0.1819

HRSL
avg_RP [4]: 7.8508

HYSL
avg_RP [3]: 0.1694

IAAI [P3-P1' tetramer cluster]
relative_probability: 29.40

IAAM
avg_RP [4]: 28.6184

IAHL
avg_RP [3]: 32.9345

IALL
avg_RP [4]: 16.3586

IASL
avg_RP [2]: 32.8949

IATL
avg_RP [4]: 24.2778

IAYL
avg_RP [3]: 27.9862

IDLL
avg_RP [2]: 0.1325

IESM
avg_RP [3]: 2.7483

IEYL
avg_RP [4]: 5.366

IFRL
avg_RP [3]: 0.1412

IGEI
avg_RP [4]: 19.2988

IGNF
avg_RP [3]: 24.8743

IGQL [P3-P1' tetramer cluster]
relative_probability: 30.24

IHFL
avg_RP [3]: 4.5373

ILHL
avg_RP [2]: 15.3505

INAL
avg_RP [4]: 12.2423
